Laboratory results taken from paper PMC9120017, “Inhibition mechanism of the chloride channel TMEM16A by the pore blocker 1PBC” (Nature Communications, 2022).
Where two headings read alike, the source gives them in different places.

Molecular target: T1, mouse TMEM16A mutant I640A (Mus musculus, UniProt Q8BHY3, I640A)
T1 construct: expressed in transfected cells; host or cells: HEK293T
T1 sequence (Q8BHY3 1-960 I640A): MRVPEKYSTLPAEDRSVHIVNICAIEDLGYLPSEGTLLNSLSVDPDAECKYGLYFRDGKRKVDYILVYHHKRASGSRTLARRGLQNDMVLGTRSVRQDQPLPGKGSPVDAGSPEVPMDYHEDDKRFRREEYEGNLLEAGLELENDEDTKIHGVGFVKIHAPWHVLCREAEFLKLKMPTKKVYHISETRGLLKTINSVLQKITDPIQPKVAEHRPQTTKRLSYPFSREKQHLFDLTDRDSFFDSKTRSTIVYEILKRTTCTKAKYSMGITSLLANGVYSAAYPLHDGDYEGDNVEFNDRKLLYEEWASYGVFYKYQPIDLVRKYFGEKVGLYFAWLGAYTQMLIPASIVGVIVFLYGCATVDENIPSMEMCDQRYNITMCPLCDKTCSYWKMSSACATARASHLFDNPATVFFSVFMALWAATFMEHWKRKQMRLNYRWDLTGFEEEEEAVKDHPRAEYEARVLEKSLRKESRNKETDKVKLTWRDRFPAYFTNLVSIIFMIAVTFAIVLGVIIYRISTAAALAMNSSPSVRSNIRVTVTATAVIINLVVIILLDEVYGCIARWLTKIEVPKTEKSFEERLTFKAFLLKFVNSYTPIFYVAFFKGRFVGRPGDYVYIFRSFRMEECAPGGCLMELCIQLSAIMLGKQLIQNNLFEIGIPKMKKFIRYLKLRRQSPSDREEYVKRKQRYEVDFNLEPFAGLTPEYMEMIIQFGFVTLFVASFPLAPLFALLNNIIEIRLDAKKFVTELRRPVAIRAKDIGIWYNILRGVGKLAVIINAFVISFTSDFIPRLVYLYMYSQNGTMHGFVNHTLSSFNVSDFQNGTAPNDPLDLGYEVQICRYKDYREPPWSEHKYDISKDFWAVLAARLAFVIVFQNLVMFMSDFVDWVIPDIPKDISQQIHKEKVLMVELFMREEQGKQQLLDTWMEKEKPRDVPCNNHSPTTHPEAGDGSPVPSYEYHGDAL
Experiment: Inside-out patch recording of 1PBC block, mutant I640A
Type: cell-based
Conditions: for remaining activity at 100 µM: 1PBC conc 100; for remaining activity at 100 µM / remaining activity at 3 µM / remaining activity at 10 µM / remaining activity at 30 µM: read-out: relative current in 1PBC (avr); for remaining activity at 3 µM: 1PBC conc 3; for remaining activity at 10 µM: 1PBC conc 10; for remaining activity at 30 µM: 1PBC conc 30
Method: HEK293T cells (ATCC CRL-1573) were maintained in Dulbecco’s modified Eagle’s medium (DMEM; Sigma-Aldrich) supplemented with 10 U ml^−1 penicillin, 0.1 mg ml^−1 streptomycin (Sigma-Aldrich), 2 mM L-glutamine (Sigma-Aldrich), and 10% FBS (Sigma-Aldrich) in a humidified atmosphere containing 5% CO2 at 37 °C. HEK293S GnTI^− cells (ATCC CRL-3022) were maintained in HyClone HyCell TransFx-H medium (GE Healthcare) supplemented with 10 U ml^−1 penicillin, 0.1 mg ml^−1 streptomycin, 4 mM L-glutamine, 0.15% poloxamer 188 (Sigma-Aldrich), and 1% FBS in an atmosphere containing 5% CO2 at 185 rpm at 37 °C. The ac splice variant of mouse TMEM16A (UniProt ID: Q8BHY3), mouse TMEM16B (UniProt ID: Q8CFW1), or mouse TMEM16F (UniProt ID: Q6P9J9) bearing a 3C cleavage site, a Venus YFP, a Myc tag, and a Streptavidin-binding peptide (SBP) downstream of the open reading frame in a modified pcDNA3.1 vector (Invitrogen) were used as described previously[21],[31]. Mutations were introduced using a modified QuikChange method[58] and were verified by sequencing.
HEK293T cells were transfected with 3–4 μg DNA per 6 cm Petri dish using the calcium phosphate co-precipitation method and were used within 24–96 h after transfection. Recordings were performed on inside-out patches excised from HEK293T cells expressing the construct of interest. Patch pipettes were pulled from borosilicate glass capillaries (O.D. 1.5 mm, I.D. 0.86 mm, Sutter Instrument) and were fire-polished with a microforge (Narishige) before use. Pipette resistance was typically 3–8 MΩ when filled with the recording solutions detailed below. Seal resistance was typically 4 GΩ or higher. Voltage-clamp recordings were made using Axopatch 200B, Digidata 1550, and Clampex 10.7 (Molecular Devices). Analog signals were filtered with the in-built 4-pole Bessel filter at 10 kHz and were digitized at 20 kHz. Solution exchange was achieved using a gravity-fed system through a theta glass pipette mounted on an ultra-fast piezo-driven stepper (Siskiyou). […] All recordings were performed at 20 °C.
A symmetrical ionic condition was used throughout. Stock solution with Ca^2+-EGTA contained 150 mM NaCl, 5.99 mM Ca(OH)2, 5 mM EGTA, and 10 mM HEPES at pH 7.40. Stock solution with EGTA contained 150 mM NaCl, 5 mM EGTA, and 10 mM HEPES at pH 7.40. Free Ca^2+ concentrations were adjusted by mixing the stock solutions at the required ratios calculated using the WEBMAXC program (http://web.stanford.edu/~cpatton/webmaxcS.htm). Patch pipettes were filled with the stock solution with Ca^2+-EGTA, which has a free Ca^2+ concentration of 1 mM. 1PBC (ChemBridge) stock was reconstituted in anhydrous DMSO (Sigma-Aldrich) at 100 mM and stored at −20 °C. Working solutions with 1PBC were prepared by serial dilution. Unless otherwise stated, experiments were performed at a saturating Ca^2+ concentration as shown in Supplementary Table 1 and the primary data were corrected for current rundown as described previously[21],[25].
Concentration-response relations, obtained from the ratio of the I-V plots before and after the application of the blocker, were fitted to the Hill equation,1 I/Imax=1/1+IC50/[blocker]^h where I/Imax is the normalized current responses, IC50 defines the concentration at which inhibition is at its half-maximum, and h is the Hill coefficient.

Compound `N#Cc1c(C(F)(F)F)cc(O)n2c1nc1ccccc12` [1PBC] has a remaining activity at 100 µM (40 mV) of 18.8%, an IC50 (60 mV, 15 µM Ca2+) of 23.1 µM and a remaining activity at 3 µM (60 mV) of 89%. For the same compound, the remaining activity at 10 µM (60 mV) was 69.4%, the remaining activity at 30 µM (60 mV) was 44.3% and the remaining activity at 100 µM (60 mV) was 17.7%. For the same compound, the “log-fold IC50 (change of mutant vs WT)” value (80 mV) was 1.079, the IC50 (80 mV, 15 µM Ca2+) was 22.1 µM and the remaining activity at 3 µM (80 mV) was 89.4%. It also gave a remaining activity at 10 µM (80 mV) of 67.9%, a remaining activity at 30 µM (80 mV) of 43% and a remaining activity at 100 µM (80 mV) of 17.7%. The IC50 (100 mV, 15 µM Ca2+) was 23.1 µM, the remaining activity at 3 µM (100 mV) was 91.3% and the remaining activity at 10 µM (100 mV) was 69.4%. It also gave a remaining activity at 30 µM (100 mV) of 43.1%, a remaining activity at 100 µM (100 mV) of 18% and an IC50 (120 mV, 15 µM Ca2+) of 24.9 µM. For the same compound, the remaining activity at 3 µM (120 mV) was 93.7%, the remaining activity at 10 µM (120 mV) was 71.5% and the remaining activity at 30 µM (120 mV) was 45%. It also gave a remaining activity at 100 µM (120 mV) of 17.7%, an IC50 (140 mV, 15 µM Ca2+) of 28.2 µM and a remaining activity at 3 µM (140 mV) of 96.5%. The remaining activity at 10 µM (140 mV) was 75.3%, the remaining activity at 30 µM (140 mV) was 47.6% and the remaining activity at 100 µM (140 mV) was 18.5%. It also gave an IC50 (-20 mV, 15 µM Ca2+) of 36.1 µM, a remaining activity at 3 µM (-20 mV) of 91.2% and a remaining activity at 10 µM (-20 mV) of 78.5%. It also gave a remaining activity at 30 µM (-20 mV) of 55.5%, a remaining activity at 100 µM (-20 mV) of 25.8% and an IC50 (-40 mV, 15 µM Ca2+) of 41.5 µM. The remaining activity at 3 µM (-40 mV) was 91.5%, the remaining activity at 10 µM (-40 mV) was 80.9% and the remaining activity at 30 µM (-40 mV) was 58.8%. For the same compound, the remaining activity at 100 µM (-40 mV) was 28.8%, the IC50 (-60 mV, 15 µM Ca2+) was 46.6 µM and the remaining activity at 3 µM (-60 mV) was 91.7%. For the same compound, the remaining activity at 10 µM (-60 mV) was 83.4%, the remaining activity at 30 µM (-60 mV) was 61.1% and the remaining activity at 100 µM (-60 mV) was 31.4%. The IC50 (-80 mV, 15 µM Ca2+) was 53 µM, the remaining activity at 3 µM (-80 mV) was 92.4% and the remaining activity at 10 µM (-80 mV) was 84.6%. The remaining activity at 30 µM (-80 mV) was 64.1%, the remaining activity at 100 µM (-80 mV) was 34.6% and the IC50 (-100 mV, 15 µM Ca2+) was 60.2 µM. It also gave a remaining activity at 3 µM (-100 mV) of 93.4%, a remaining activity at 10 µM (-100 mV) of 86.7% and a remaining activity at 30 µM (-100 mV) of 66.4%. It also gave a remaining activity at 100 µM (-100 mV) of 37.8%, an IC50 (-120 mV, 15 µM Ca2+) of 66 µM and a remaining activity at 3 µM (-120 mV) of 93.4%. It also gave a remaining activity at 10 µM (-120 mV) of 87.4%, a remaining activity at 30 µM (-120 mV) of 68.3% and a remaining activity at 100 µM (-120 mV) of 40.2%. For the same compound, the IC50 (-140 mV, 15 µM Ca2+) was 73.5 µM, the remaining activity at 3 µM (-140 mV) was 93.7% and the remaining activity at 10 µM (-140 mV) was 88.3%. For the same compound, the remaining activity at 30 µM (-140 mV) was 69.4%, the remaining activity at 100 µM (-140 mV) was 44% and the IC50 (I640A, V 0 mV) was 31.5 µM. For the same compound, the IC50 (I640A, V 20 mV) was 27.5 µM, the IC50 (I640A, V 40 mV) was 24.7 µM and the IC50 (I640A, V 60 mV) was 23.1 µM. The IC50 (I640A, V 80 mV) was 22.1 µM, the IC50 (I640A, V 100 mV) was 23.1 µM and the IC50 (I640A, V 120 mV) was 24.9 µM. The IC50 (I640A, V 140 mV) was 28.2 µM, the IC50 (I640A, V -20 mV) was 36.1 µM and the IC50 (I640A, V -40 mV) was 41.5 µM. The IC50 (I640A, V -60 mV) was 46.6 µM, the IC50 (I640A, V -80 mV) was 53 µM and the IC50 (I640A, V -100 mV) was 60.2 µM. The IC50 (I640A, V -120 mV) was 66 µM and the IC50 (I640A, V -140 mV) was 73.5 µM.
